Data: article PMC12495443, “Developing inhibitors of the guanosine triphosphate hydrolysis accelerating activity of Regulator of G protein Signaling-14 [drawing 1]” (The Journal of Biological Chemistry, 2025)
Like-named read-outs stand apart in the source and are kept apart here.

Tests used:
[1] = molecular target: T1, human RGS14 RGS-box (wild-type) (Homo sapiens, UniProt O43566); assay: Transcreener GDP RGScreen fluorescence polarization assay of RGS14 RGS-box GAP activity on Gαi1(DM); format: biochemical; conditions: for IC50 / RGS14 pIC50: Transcreener GDP RGScreen; for Ratio (RGS14 pIC50 / RGS12 pIC50): values > 1.0 reflect RGS14 selectivity
T1 construct: human RGS14 RGS-box (aa 46–195 of UniProt O43566); host or cells: E. coli
T1 sequence (O43566 46-195): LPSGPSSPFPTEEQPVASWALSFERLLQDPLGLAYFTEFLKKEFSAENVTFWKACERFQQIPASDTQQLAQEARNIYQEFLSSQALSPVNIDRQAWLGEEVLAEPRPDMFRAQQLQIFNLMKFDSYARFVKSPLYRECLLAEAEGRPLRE
Text: (§1) We previously described work with BellBrook Labs creating the Transcreener GDP RGScreen fluorescence polarization assay of steady-state GTP hydrolysis, leveraging a double point-mutant in the Gα enzyme to make GTP hydrolysis, rather than GDP (product) release, the rate-limiting step for multiple rounds of GTP conversion ([57], [59]). […] Titrating inputs of the double point-mutant (“DM”) Gαi1 and RGS-box recombinant proteins (Fig. S2, B and C) established a robust, medium-throughput assay for evaluating potential RGS14 and RGS12 inhibitors, with “assay quality” Z′ scores ([60]) above 0.76 for each target (Fig. S2D).
(§2) Reagents and protocols for the fluorescence anisotropy-based Transcreener GDP RGScreen assay using a rate-altered, double point-mutant, recombinant Gαi1 protein have been extensively described previously ([43], [44]); reactions were always performed so that total GTP converted over the time course was consistently less than 10% of reaction maximum input. Specific methods for its application in assessing RGS14 and RGS12 GAP activity are summarized as follows. Open-reading frames (ORFs) encoding wild-type versions of the human RGS14 RGS-box (aa 46–195 of UniProt O43566) and human RGS12 RGS-box (aa 695–843 of UniProt O14924) were each sub-cloned in-frame with an N-terminal hexahistidine (His6) expression tag in the plasmid pET30a, expressed in E. coli cultures, and then purified by nickel-nitriloacetate (Ni-NTA) and size-exclusion (Superdex 200) column chromatographies by GenScript using previously described methods ([35]). These recombinant His6-tag fusion proteins were stored at −80 °C in storage buffer (150 mM NaCl, 50 mM Tris-HCl pH 8.0, 10% glycerol) before thawing and use. Cysteine-less versions were similarly produced by ORF site-directed mutagenesis: for RGS14, codons for cysteine residues 47 and 130 (numbered as in PDB id 2JNU) were replaced with serine codons; for RGS12, codons for cysteines 4, 51, 78, and 134 (numbered in relation to PDB id 2EBZ) were replaced with serine codons. Use of Transcreener GDP-detection reagents to assess compound inhibition of Naegleria fowleri Gα7 protein GTPase activity ([83]) has previously been described ([84]).

[2] = molecular target: T2, human RGS12 RGS-box (wild-type) (Homo sapiens, UniProt O14924); assay: Transcreener GDP RGScreen fluorescence polarization assay of RGS12 RGS-box GAP activity on Gαi1(DM); format: biochemical; conditions: wild-type RGS12 RGS-box GAP activity, Gαi1(DM); for IC50: read-out: RGS12 pIC50 (converted)
T2 construct: human RGS12 RGS-box (aa 695–843 of UniProt O14924); host or cells: E. coli
T2 sequence (O14924 695-843): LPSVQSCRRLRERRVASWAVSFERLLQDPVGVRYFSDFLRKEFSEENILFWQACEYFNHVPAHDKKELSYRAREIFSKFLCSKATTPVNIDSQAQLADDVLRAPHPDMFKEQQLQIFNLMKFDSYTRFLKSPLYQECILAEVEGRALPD
Text: as §1, §2

[3] = wild-type RGS14 RGS-box GAP activity, Gαi1(DM), read-out: RGS14 pIC50 (converted)
[4] = wild-type RGS14 RGS-box GAP activity, Gαi1(DM)

Row | Compound | IC50 [1, 3] | IC50 [2] | Ratio (RGS14 pIC50 / RGS12 pIC50) [1] | also measured
1 | COc1ccc(OCc2nnc3n2N=C(c2ccc(NC(C)=O)cc2)CS3)cc1 [Z55660046] | > 1000 µM | 155 µM | – | –
2 | CCCc1ccc(C2=Nn3c(COc4ccccc4F)nnc3SC2)cc1 [Z55660462] | 16.6 µM | 10.5 µM | 0.96 | –
3 | COc1ccc(Cc2nnc3n2N=C(c2ccccc2)C(C)S3)cc1OC (stereo not drawn) [Z55660788] | – | – | 0.90 | RGS14 pIC50 [1, 4]: 4.03; RGS12 pIC50 [2]: 4.50
4 | O=C(O)C[C@@H]1Sc2nnc(-c3ccco3)n2N=C1c1ccccc1 [Z90276389] | 79.4 µM | 83.2 µM | 1.00 | –
5 | COc1cccc(OCc2nnc3n2N=C(c2ccccc2)[C@H](CC(=O)O)S3)c1 [Z90278437] | 170 µM | 174 µM | 1.00 | –
6 | CC(Sc1n[nH]c2nc3ccccc3n12)C(=O)c1c(F)cc(F)cc1F (stereo not drawn) [Z1098346193, 2-(2,4,5,7-tetraaza-tricyclo[6.4.0.0²,⁶]dodeca-1(12),3,5,8,10-pentaen-3-ylsulfanyl)-1-(2,4,6-trifluorophenyl)propan-1-one] | ~200 µM | 63.1 µM | – | –
7 | CC(C)(C)c1ccc(C2=Nn3c(nnc3-c3ccco3)SC2)cc1 [Z55660110] | 56.2 µM | 53.7 µM | – | –
8 | CC(C)c1nnc2n1N=C(c1cc3ccccc3o1)CS2 [Z55627782] | 191 µM | 27.5 µM | 0.82 | –
9 | COc1ccc(OCc2nnc3n2N=C(c2cccc(N4CCCC4=O)c2)CS3)cc1 [Z667824974] | 646 µM | 224 µM | 0.87 | –
10 | FC(F)Oc1ccc(C2=Nn3c(COc4ccccc4)nnc3SC2)cc1 [Z56840012] | 36.3 µM | 11.5 µM | 0.90 | –
11 | CC1Sc2nnc(Cc3ccc(Br)cc3)n2N=C1c1ccc(Cl)cc1 (stereo not drawn) [Z55660592] | 21.4 µM | 10 µM | 0.93 | –
12 | CSc1nnc2n1N=C(c1ccc(NC(=O)C(C)C)cc1)[C@H](C)S2 [Z90277842] | 107 µM | 61.7 µM | 0.94 | –
13 | O=C(O)CC1Sc2nnc(C3CCCO3)n2N=C1c1ccc(Cl)cc1 (stereo not drawn) [Z90278051] | 56.2 µM | 107 µM | 1.07 | –
14 | Fc1ccccc1OCc1nnc2n1N=C(c1ccc(Cl)cc1)CS2 [Z55660438] | 234 µM | 20.4 µM | 0.77 | –
15 | Cc1ccc(C2=Nn3c(COc4ccc(Cl)cc4)nnc3SC2CC(=O)O)cc1 (stereo not drawn) [Z90276194] | – | – | 1.00 | RGS14 pIC50 [1, 4]: 4.21; RGS12 pIC50 [2]: 4.21
16 | Cc1ccc(C2=Nn3c(nnc3C3CC3)SC2CC(=O)O)cc1 (stereo not drawn) [Z90274594] | 275 µM | 66.1 µM | 0.85 | –
17 | COc1ccc(OCc2nnc3n2N=C(c2cc(C)n(-c4nccs4)c2C)CS3)cc1 [Z667824954] | 219 µM | 64.6 µM | 0.87 | –
18 | COc1ccc(-c2nnc3n2N=C(c2ccc(NC(C)=O)cc2)[C@@H](C)S3)cc1OC [Z90277200] | 30.2 µM | 18.6 µM | 0.96 | –
19 | O=C(O)CC1Sc2nnc(C3CC3)n2N=C1c1ccc(F)cc1 (stereo not drawn) [Z90274599] | 91.2 µM | 41.7 µM | 0.92 | –
20 | Cc1ccc(C2=Nn3c(COc4ccccc4)nnc3SC2)c(C)c1 [Z55659515] | 4.07 µM | 4.07 µM | – | –
21 | O=C(O)C[C@@H]1Sc2nnc(-c3ccco3)n2N=C1c1ccc(F)cc1 [Z90276391] | 93.3 µM | 61.7 µM | 0.96 | –
22 | O=C(O)CC1Sc2nnc(C3COc4ccccc4O3)n2N=C1c1cccs1 (stereo not drawn) [Z90275816] | 20.4 µM | 44.7 µM | 1.08 | –

Row | Compound | IC50 [1, 3] | IC50 [2] | Ratio (RGS14 pIC50 / RGS12 pIC50) [1] | also measured
23 | COC(=O)C1Sc2nnc(COc3ccc(F)cc3)n2N=C1c1cc2ccccc2o1 (stereo not drawn) [Z8201263931] | 100 µM | 40.7 µM | 0.91 | –
24 | O=C(O)C[C@@H]1Sc2nnc(COc3ccc(Cl)cc3)n2N=C1c1ccccc1 [Z90276197, 2-{3-[(4-chlorophenoxy)methyl]-6-phenyl-5H-[1,2,4]triazolo[3,4-b][1,3,4]thiadiazin-7-yl}acetic acid] | – | 42.7 µM | 0.94 | IC50 ([1]; wild-type RGS14 RGS-box, read-out: IC50 against RGS14 RGS-box GAP activity): 81 µM
25 | COc1ccc2nc(SC(C)C(=O)c3ccc(C(C)(C)C)cc3)[nH]c2c1 (stereo not drawn) [Z16077565] | > 1000 µM | – | – | –
26 | COc1ccc2nc(SC(C)C(=O)c3cc(C)c(C)cc3C)[nH]c2c1 (stereo not drawn) [Z16077531] | > 1000 µM | – | – | –
27 | Cc1ccc2[nH]c(SC(C)C(=O)c3cccc(F)c3)nc2c1 (stereo not drawn) [Z5032180743] | > 1000 µM | – | – | –
28 | CCCC(=O)Nc1ccc(C(=O)C(C)Sc2nc3ccc(OC)cc3[nH]2)cc1 (stereo not drawn) [Z50965416] | > 1000 µM | – | – | –
29 | COc1ccc2nc(SC(C)C(=O)c3[nH]c(C)c(C(C)=O)c3C)[nH]c2c1 (stereo not drawn) [Z98717471] | > 1000 µM | – | – | –
30 | COCCn1c(SC(C)C(=O)c2ccc(Br)cc2)nc2ccccc21 (stereo not drawn) [Z16216100] | > 1000 µM | – | – | –
31 | COc1ccc2nc(SC(C)C(=O)c3ccc(Br)cc3)[nH]c2c1 (stereo not drawn) [Z16077584] | > 1000 µM | – | – | –
32 | CCn1c(SC(C)C(=O)c2ccc(NC(C)=O)cc2)nc2cc(S(N)(=O)=O)ccc21 (stereo not drawn) [Z51418527] | > 1000 µM | – | – | –
33 | COc1ccc2nc(SC(C)C(=O)c3ccc(F)cc3F)[nH]c2c1 (stereo not drawn) [Z167736700] | > 1000 µM | – | – | –
34 | COCCn1c(SC(C)C(=O)c2ccc3c(c2)CCN3C(C)=O)nc2ccccc21 (stereo not drawn) [Z165550978] | > 1000 µM | – | – | –
35 | COc1ccc2nc(SCC(=O)c3ccc(O)cc3)[nH]c2c1 [Z112468740] | > 1000 µM | – | – | –
36 | Cc1ccc2[nH]c(SC(C)C(=O)c3c(F)cc(F)cc3F)nc2c1 (stereo not drawn) [Z1098347474] | > 1000 µM | – | – | –
37 | COc1ccc2nc(SC(C)C(=O)c3ccccc3)[nH]c2c1 (stereo not drawn) [Z16077228] | > 1000 µM | – | – | –
38 | COc1ccc2nc(SC(C)C(=O)c3ccccc3C(F)(F)F)[nH]c2c1 (stereo not drawn) [Z5032180788] | > 1000 µM | – | – | –
39 | COc1ccc2[nH]c(SC(C(N)=O)c3ccc(F)cc3)nc2c1 (stereo not drawn) [Z234729962] | > 1000 µM | – | – | –
40 | CCn1c(SC(C)C(=O)c2ccc(Br)cc2)nc2cc(S(N)(=O)=O)ccc21 (stereo not drawn) [Z51418902] | > 1000 µM | – | – | –
41 | CCc1ccc(C(=O)C(C)Sc2nc3cc(C)ccc3[nH]2)cc1 (stereo not drawn) [Z18443315] | > 1000 µM | – | – | –
42 | COc1ccc2nc(SC(C)C(=O)c3cc(C)ccc3C)[nH]c2c1 (stereo not drawn) [Z16077483] | > 1000 µM | – | – | –
43 | COc1ccc2nc(SC(C(=O)OC(C)(C)C)C(C)C)[nH]c2c1 (stereo not drawn) [Z5032180761] | > 1000 µM | – | – | –
